Test results published in paper doi:10.1101/2025.03.14.643404, “A Bivalent Molecular Glue Linking Lysine Acetyltransferases to Oncogene-induced Cell Death” (bioRxiv, 2025).

Assays:
SUDHL5 = assay: Cell viability, 7 days compound treatment (Cell Titer-Glo), SUDHL5; assay type: cell-based; conditions: Homo sapiens, SU-DHL-5, 168 h; SUDHL5, 7 days; read-out: IC50 of antiproliferation
Protocol: Fifteen thousand cells were seeded in 100 μl of media per well of a U-bottom 96-well plate and treated with digitally dispensed drugs (Tecan D300e) for the indicated times and doses. After 96 hours, plates were centrifuged for 750 rpm for 3 minutes, and old media was exchanged for 100 μl of fresh media. Drug treatment was then repeated at the indicated doses. 72 hours following media change, cells were transferred to 96 well flat-bottom opaque plates. Viability was measured by adding 25 μL Cell Titer-Glo reagent (Promega G7570) to each well and luminescence was measured (BMG Labtech Pherastar FS). The background luminescence was subtracted, and the signal was normalized to DMSO-treated cells. IC50 measurements on cell lines were calculated using at least three biological replicates by separate cell passages. Fit of dose–response curves to data and statistical analysis was performed using GraphPad PRISM using the four-parameter log(inhibitor) vs response function.

H3K27ac = assay: ChIP-seq for H3K27ac in SUDHL5; assay type: cell-based, human; conditions: SUDHL5, 1 nM, 1 hour
Protocol: 25–30 million cells were treated with TCIP3 or DMSO for indicated timepoints. Cells were washed in PBS containing TCIP3 or DMSO and crosslinked for 11 min in CiA Fix Buffer (50 mM HEPES pH 8.0, 1 mM EDTA, 0.5 mM EGTA, 100 mM NaCl) with addition of formaldehyde to a final concentration of 1%. The crosslinking reaction was quenched by glycine added at 0.125 M final concentration. Crosslinked cells were centrifuged at 1,000 × g for 5 min. […] Library size distributions were confirmed using an Agilent Bioanalyzer and High Sensitivity DNA reagents (Agilent 5067) and concentrations determined by qPCR. […]
The data quality was checked using fastq (https://www.bioinformatics.babraham.ac.uk/projects/fastqc/). The raw reads were trimmed from adapters with cutadapt (parameters: -a […] -A […]) and raw reads were aligned to hg38 human genome assembly using bowtie2 (parameters: --local --maxins 1000). Low quality reads, duplicated reads and reads with multiple alignments were removed using samtools[120] and Picard (https://broadinstitute.github.io/picard/). macs2[121] was used to map position of peaks with FDR cutoff of 0.05. […] All browser tracks and metaprofiles shown were calculated with sequence-depth-normalized, replicate-merged (bigWigMerge[125]) and, for ChIP-seq, input-subtracted data (deeptools bigWigCompare). […]

IC50 (SUDHL5): 1.2 nM
Structure (SMILES): CNC(=O)COc1cc2cc(Nc3nc(N4CCC(C(=O)N5CCN(CCC(=O)N6CCC(n7nc(N8CCCc9cc(-c%10cnn(C)c%10)c(C(F)F)cc98)c8c7CCN(C(=O)NC)C8)CC6)CC5)CC4)ncc3Cl)cc(OC)c2n(C)c1=O [TCIP3]
H3K27ac peaks gained (H3K27ac): 533
H3K27ac peaks lost (H3K27ac): 5,216
